Patent publication US7192591B2, “Pharmaceutical composition comprising an extract of Elfvingia applanata for the prevention and the treatment of diabetes and diabetic complications” (priority 2002, dated 2007)
Values belong to the compound of their own block, whether it stands above or below them.

Assays:
STZ-diabetic rats [1] = assay: Sorbitol accumulation in red blood cell, lenses and sciatic nerves of STZ-diabetic rats; assay type: in vivo, SD rats; conditions: 2 weeks
Method: Diabetes mellitus was induced in male SD rats, weighing 220-250 g, by a single intraperitoneal injection of strptozotocin (Sigma chemical CO., St. Louis, Mo., USA) dissolved in phosphate buffered saline acidified to pH 4.5 with 0.05 M citric acid (66 mg/kg body wt). Control rats were injected with the vehicle only. The animals were fed standard Lab. Chows and water ad. Lib. throughout the experiments. Two weeks later, the diabetes-induced rats were used in following experiments. […] The extract was suspended in saline containing 0.5% carboxymethyl cellulose. The animals were then sacrificed under ether anesthesia. The contents of sorbitol in the red blood cell, sciatic nerves, and lenses were determined enzymatically. Sorbitol was measured by a modification of the enzymatic assay procedure described in the literature (Clements, R. S. et al.; Science, 166(908), pp1007-8, 1969). 0.5 ml of protein-free filtrate of tissues was added to a reaction mixture consisting of 1.0 ml of 0.05 M glycine buffer adjusted to pH 9.4 containing 0.2 mM nicotinamide adenine dinucleotide (NAD) and 0.64 U of sorbitol dehydrogenase. Blanks untreated with the filtrate, NAD, or sorbitol dehydrogenase, were routinely run simultaneously. The relative fluorescence due to NADH was measured with an excitation wavelength of 366 nm and an emission wavelength of 452 nm. Epalrestat used in the present invention is a conventional therapeutic drug for diabetic complications.

[2] = molecular target: T1, rat lenses aldose reductase (Rattus norvegicus, UniProt P07943); assay: Rat lens aldose reductase inhibition (NADPH decrease at 340 nm, DL-glyceraldehyde substrate); assay type: biochemical, Sprague-Dawley rats
T1 construct: The supernatant fraction of the rat lens homogenate was prepared according to the procedure described in the literature; from tissue; host or cells: lenses of Sprague-Dawley rats
Method: Crude aldose reductase was prepared as follows: rat lenses were removed from Sprague-Dawley rats weighing 250˜280 g and frozen until use. […] Partially purified enzyme having its a specific activity of 6.5 U/mg was routinely used to test enzyme inhibition. The partially purified material was separated into 1.0 ml of aliquots and stored at −40° C.
Each 1.0 ml of cuvette containing equal units of enzyme, 0.1M sodium phosphate buffer (pH 6.2), 0.3 mM NADPH with or without 10 mM substrate and inhibitor was prepared.

STZ-diabetic rats [3] = assay: Plasma glucose content in STZ-diabetic rats after 2 weeks of oral dosing; assay type: in vivo, Sprague-Dawley (SD) rats; conditions: 200 mg/kg/day intragastric
Method: All experiments were performed on Sprague-Dawley (SD) rats aged 10 weeks, weighed 200-250 g and purchased from the Seoul national university. The animals were acclimatized for 1-2 weeks before being used for the experiments. Standard pelleted diet and water were given ad libitum. Animals were maintained under constant 12 hours light and dark cycle and an environmental temperature ranging from 21 to 23° C. Diabetes mellitus was induced in male SD rats, weighing 220-250 g, by a single intraperitoneal injection of strptozotocin (Sigma chemical CO., St. Louis, Mo., USA) dissolved in phosphate buffered saline acidified to pH 4.5 with 0.05 M citric acid (66 mg/kg body wt). Control rats were injected with the vehicle only. The animals were fed standard Lab. Chows and water ad. Lib. throughout the experiments. Two weeks later, the diabetes-induced rats were used in following experiments. […] extracts were suspended in saline containing 0.5% carboxymethyl cellulose. The animals were then sacrificed under ether anesthesia and their blood samples were collected. Plasma glucose levels were determined by using a commercial kit.

normal rats = assay: Oral glucose tolerance test in normal rats; assay type: in vivo, SD rats; conditions: extracts 300 mg/kg
Method: Prior to an oral glucose tolerance test, rats were fasted for 16 hours. And then saline for control group, 250 mg/kg of metformin, one of the biguanides drug for comparison group and each 300 mg/kg of Elfvingia applanata extracts, respectively, was orally administered to each group consisting of 10 rats. Thirty minutes later, 3 g/kg of glucose was orally administered to each rat with a feeding syringe. Blood samples were collected from carotid artery at (just before the oral administration of glucose), 60, 120, and 180 mins after glucose load for glucose assay.

inhibition at 0.001 µg/mL ([2]; concentration 0.001 μg/ml): 35% | inhibition at 0.01 µg/mL ([2]; concentration 0.01 μg/ml): 60.2% | inhibition at 0.1 µg/mL ([2]; concentration 0.1 μg/ml): 100%
SMILES: CC(/C=C1\SC(=S)N(CC(=O)O)C1=O)=C\c1ccccc1 [Epalrestat]
Sorbitol in the lenses (STZ-diabetic rats [1]; lenses, 200 mg/kg/day intragastric): 0.38 ± 0.05 nmol/mg dry wt. | Inhibition (%) of sorbitol accumulation in the lenses (STZ-diabetic rats [1]; lenses, 200 mg/kg/day): 52.5% | Sorbitol in the red blood cell (STZ-diabetic rats [1]; red blood cell, 200 mg/kg/day intragastric): 108.7 ± 11.6 nmol/g Hg | Inhibition (%) of sorbitol accumulation in the red blood cell (STZ-diabetic rats [1]; red blood cell, 200 mg/kg/day): 75.0% | Sorbitol in the sciatic nerves (STZ-diabetic rats [1]; sciatic nerves, 200 mg/kg/day intragastric): 4.3 ± 0.5 nmol/mg dry wt. | Inhibition (%) of sorbitol accumulation in the sciatic nerves (STZ-diabetic rats [1]; sciatic nerves, 200 mg/kg/day): 58.2% | Plasma glucose (STZ-diabetic rats [3]): 3.9 ± 0.2 g/L | Inhibition (%) of plasma glucose (STZ-diabetic rats [3]; vs control): 31.6%

SMILES: CN(C)C(=N)N=C(N)N [Metformin, metformin]
Glucose, 1 hr (normal rats; 1 hr after 3 g/kg oral glucose load, metformin 250 mg/kg oral): 140.1 ± 7.0 mg/dL | Glucose, 2hr (normal rats; 2 hr after 3 g/kg oral glucose load, metformin 250 mg/kg oral): 122.8 ± 1.4 mg/dL | Glucose, 3hr (normal rats; 3 hr after 3 g/kg oral glucose load, metformin 250 mg/kg oral): 139.7 ± 4.5 mg/dL | Glucose, 0 hr (normal rats; just before 3 g/kg oral glucose load, metformin 250 mg/kg oral 30 min earlier): 54.5 ± 2.2 mg/dL

SMILES: O=C(O)CC1(CC(=O)O)CCCC1 [TMG, TetraMethylene Glutaric acid]
Inhibition (%) of aldose reductase ([2]; concentration 0.1 μg/ml): 40.6% | Inhibition (%) of aldose reductase ([2]; concentration 1 μg/ml): 51.3% | Inhibition (%) of aldose reductase ([2]; concentration 10 μg/ml): 76.4% | IC50 ([2]; rat lens enzyme, pH 6.2, unit (μM) printed beside the value): 0.46 µM
